Source: patent publication US20250129055A1, “GLUCOSIDE DERIVATIVE, AND PREPARATION METHOD THEREFOR AND APPLICATION THEREOF” (BEIJING INCREASE INNOVATIVE DRUG CO., LTD., priority 2020, published 2025)

How the values were obtained:
SGLT2 = SGLT2 (Homo sapiens (Human), UniProt P31639); assay: In vitro SGLT2 inhibitory activity: 1-NBDG uptake by CHO-SGLT2 cells; type: cell-based; settings: read-out: Inhibition rate of compounds on SGLT2 (%)
Description: The effect of the compounds on SGLT2-mediated glucose uptake was investigated by establishing an SGLT2 overexpression cell model and using the fluorescent glucose (2-deoxy-1-[(7-nitro-2,1,3-benzoxadiazol-4-yl)amino]-D-glucose, 1-NBDG) tracer method to screen out candidate compounds with SGLT2 inhibitory activity.
The humanized SGLT2 overexpression cells (CHO-SGLT2) constructed from Chinese hamster ovary (CHO) cells were cultured in 1640 medium (Gibco) containing 10% fetal bovine serum (Gibco, 10270), subcultured at a ratio of 1:3, and replaced with new culture medium 3 times every week. Fluorescence detection cell culture plates and other culture flasks were purchased from Corning Company. […] Appropriate amounts of all compounds were weighed, prepared into 100 mM stock solutions with DMSO, and stored at 4° C. in the dark.
Before the 1-NBDG uptake test, CHO-SGLT2 cells were digested and seeded in a 96-well cell culture plate with a cell number of 40,000/well. After the cells were cultured for 48 h, the medium was discarded, and 100 μl of choline buffer was added to each well. After the cells were starved at 37° C. for 30 min, the choline buffer was discarded and 100 μl of the newly prepared Na^+ sodium buffer containing […] 1-NBDG and the test compounds (Compound) was added. The solvent DMSO was used as the negative control (Control) for the test compounds.
The Na^+ sodium buffer without 1-NBDG was used as the blank control (Blank). After 1 h of culture, the incubation solution was discarded. The cells were washed with choline buffer solution 3 times, and then 50 μl of neutral lysate was added to each well to lyse the cells on ice for 10 min. The fluorescence value of each well was detected using a multi-functional microplate reader at […].
At least 3 experimental replicates were set for each compound at indicated concentrations, and the data were expressed as mean±SEM. Uptake amount of 1-NBDG by cells=fluorescence value1-NBDG-fluorescence valueBlank. Inhibition rate on uptake amount of SGLT2 glucose (%)=(uptake amountcontrol−uptake amountcompound)/uptake amountcontrol×100%. Concentration-inhibition rate curves were plotted using Graphpad Prism software, and IC50 values were calculated accordingly.

Alloxan diabetic mice = assay: Efficacy in Alloxan diabetes model mice; type: in vivo
Description: Test Example 3 Research on efficacy of the compounds of the present invention in in vivo anti-Alloxan diabetes model mice
Alloxan diabetes mice were used. Normal ICR mice (male, 22-24 g) were randomly divided into groups including normal group, model group (con), positive control group and test compound groups with four different doses (n=11), and the mice without injection of Alloxan were in a normal control group (n=10).
Mice were administered with drugs by gavage.
Single administration: Mice were fasted for 3 h, and then the fasting blood (0 min) was collected. Then the mice in each group were administered with drugs by gavage. After 1 h, they were administered with a glucose ([…]) solution. Blood was collected at 30 min, 60 min, 120 min, and 180 min after the glucose administration. The blood glucose level was measured using glucose oxidase-peroxidase method, and the area under the blood glucose curve was calculated.
On the 6th day of continuous administration, under the condition of no fasting, blood samples were collected from mice before administration (0 h), 1 h, 2 h, 4 h, 8 h and 24 h after administration to measure blood glucose.
On the 9th day of continuous administration, the mice were fasted for 1 h and then administered with drugs by gavage. An oral glucose tolerance test (OGTT) was performed 1 h after administration.
On the 16th day of continuous administration, under the condition of no fasting, urine samples were collected from mice 1 h after administration to measure the concentration of urine glucose.
On the 22nd day of continuous administration, the mice were fasted for 1 h and then administered with drugs by gavage, and blood samples were collected to measure the fasting blood glucose 1 h after administration.
On the 28th day of continuous administration, under the condition of no fasting, blood samples were collected from mice 1 h after administration to measure the random blood glucose.
On the 32nd day of continuous administration, under the condition of no fasting, blood samples were collected from mice to measure glycosylated hemoglobin (HbA1c).
The data were expressed as mean±SEM (n=10-11). The comparison between multiple groups was performed by one-way analysis of variance, and the comparison between two groups was performed by Dunnett's t test. Statistical graphing was performed using Graphpad Prism software.

SGLT2, sequence (P31639 whole entry): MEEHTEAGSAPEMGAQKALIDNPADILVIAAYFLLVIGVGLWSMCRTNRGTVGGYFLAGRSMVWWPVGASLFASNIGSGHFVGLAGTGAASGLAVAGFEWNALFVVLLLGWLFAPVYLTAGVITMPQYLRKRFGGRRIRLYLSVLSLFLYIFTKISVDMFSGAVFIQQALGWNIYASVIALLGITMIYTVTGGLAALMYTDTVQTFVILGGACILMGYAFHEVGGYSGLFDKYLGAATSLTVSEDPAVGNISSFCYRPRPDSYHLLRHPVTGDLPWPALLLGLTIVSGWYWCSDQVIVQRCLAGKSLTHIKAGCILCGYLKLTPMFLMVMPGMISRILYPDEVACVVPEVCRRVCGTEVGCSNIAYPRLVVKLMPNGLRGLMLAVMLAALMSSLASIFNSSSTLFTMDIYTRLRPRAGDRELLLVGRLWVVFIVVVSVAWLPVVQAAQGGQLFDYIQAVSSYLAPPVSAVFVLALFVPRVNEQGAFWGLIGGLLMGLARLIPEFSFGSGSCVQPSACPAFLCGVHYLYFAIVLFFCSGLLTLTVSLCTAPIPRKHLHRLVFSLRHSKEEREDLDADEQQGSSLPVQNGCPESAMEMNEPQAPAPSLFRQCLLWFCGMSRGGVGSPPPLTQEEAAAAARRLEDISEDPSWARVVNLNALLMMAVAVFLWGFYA

CCOc1ccc(Cc2cc([C@@H]3O[C@H](CO)[C@@H](O)[C@H](O)[C@H]3O)ccc2Cl)cc1 [Dapagliflozin, reference compound]
inhibition at 10 µM (SGLT2; compound concentration 1 × 10^−5 mol/L): 106 ± 4.2%
inhibition at 10 pM (SGLT2; compound concentration 1 × 10^−11 mol/L): 1.9 ± 9.2%
inhibition at 1 pM (SGLT2; compound concentration 1 × 10^−12 mol/L): 6.8 ± 5.9%
inhibition at 0.05 µM (SGLT2; compound concentration 5 × 10^−8 mol/L): 84.3 ± 4%
inhibition at 0.005 µM (SGLT2; compound concentration 5 × 10^−9 mol/L): 84.8 ± 3.2%
inhibition at 0.0005 µM (SGLT2; compound concentration 5 × 10^−10 mol/L): 60.1 ± 2%
inhibition at 50 pM (SGLT2; compound concentration 5 × 10^−11 mol/L): 42 ± 2.8%
Concentration of fasting blood glucose, the 9th day (Alloxan diabetic mice; 2.0 mg/kg, 9th day): 256.7 ± 14.4 mg/dL
Concentration of fasting blood glucose, the 22nd day (Alloxan diabetic mice; 2.0 mg/kg, 22nd day): 316.5 ± 18.6 mg/dL
HbA1c (Alloxan diabetic mice; 2.0 mg/kg, 32nd day): 6.6 ± 0.5%
AUC of blood glucose (Alloxan diabetic mice; 2.0 mg/kg, OGTT on the 9th day): 463.3 ± 28.0 mg·h/dL
Concentration of blood glucose 0 min (Alloxan diabetic mice; 2.0 mg/kg, OGTT on the 9th day, 0 min): 256.7 ± 14.4 mg/dL
Concentration of blood glucose 30 min (Alloxan diabetic mice; 2.0 mg/kg, OGTT on the 9th day, 30 min): 278.3 ± 17.6 mg/dL
Concentration of blood glucose 60 min (Alloxan diabetic mice; 2.0 mg/kg, OGTT on the 9th day, 60 min): 227.3 ± 13.5 mg/dL
Concentration of blood glucose 120 min (Alloxan diabetic mice; 2.0 mg/kg, OGTT on the 9th day, 120 min): 178.9 ± 20.8 mg/dL
AUC of blood glucose (Alloxan diabetic mice; 2.0 mg/kg, non-fasting, 6th day, 0-24 h): 13216 ± 440.8 mg·h/dL
Concentration of blood glucose 1 h (Alloxan diabetic mice; 2.0 mg/kg, non-fasting, 6th day, 1 h after administration): 433.7 ± 19.5 mg/dL
Concentration of blood glucose 2 h (Alloxan diabetic mice; 2.0 mg/kg, non-fasting, 6th day, 2 h after administration): 425.1 ± 22.5 mg/dL
Concentration of blood glucose 4 h (Alloxan diabetic mice; 2.0 mg/kg, non-fasting, 6th day, 4 h after administration): 343.1 ± 17.8 mg/dL
Concentration of blood glucose 8 h (Alloxan diabetic mice; 2.0 mg/kg, non-fasting, 6th day, 8 h after administration): 522.7 ± 34.0 mg/dL
Concentration of blood glucose 24 h (Alloxan diabetic mice; 2.0 mg/kg, non-fasting, 6th day, 24 h after administration): 697.7 ± 17.6 ^ mg/dl
Concentration of blood glucose 0 h (Alloxan diabetic mice; 2.0 mg/kg, non-fasting, 6th day, before administration): 614.3 ± 9.6 ^ mg/dl
Concentration of blood glucose (random) (Alloxan diabetic mice; 2.0 mg/kg, random blood glucose on the 28th day): 499.3 ± 13.0 mg/dL
Duration of hypoglycemic effect (Alloxan diabetic mice; 6th day, dapagliflozin 2.0 mg/kg, Compound 2 0.25-2.0 mg/kg): no significant effect after 24 h
